# Assay results: patent US20160220527A1, “KINASE INHIBITORS FOR THE TREATMENT OF CANCER” (Pitney Pharmaceuticals Pty Limited, priority 2012, published 2016)
# Legend:
# A2780 = test: SRB cell proliferation assay; type: cell-based; conditions: Table 3, AAD series, human epithelial ovarian cancer
# Experimental: (§1) The human ovarian cancer cell lines OVCAR-3, SKOV-3 and A2780 and primary cells human umbilical vein endothelial cells (HUVEC) and all other cell lines were obtained from the American Type Culture Collection (ATCC) and maintained according to their instructions. Astrocytes and glioma cell lines were kindly gifted by Dr. Kerry McDonald from Lowy Cancer Research Centre, University of New South Wales, Australia.
# (§2) Cell proliferation was assessed using the sulforhodamine B (SRB) assay. Cells seeded in 96-well plate (2,000-3,000 cell/well) were treated with MPL (0, 1, 5, 10, 25, 50 and 100 μmol/L) for 72 h. Cells were then fixed, washed and stained with 100 μl of 0.4% (w/v) SRB dissolved in 1% acetic acid. Unbound dye was removed by five washes with 1% acetic acid before air drying. Bound SRB was solubilized with 100 μl of 10 mM Tris base (pH 10.5) and the absorbance read at 570 nm. Exactly the same procedure was used to assess MPL-SO2. Both agents were dissolved in ethanol and diluted with media to give the final concentrations required for cell culture assays.
# OVCAR-3 = test: SRB cell proliferation assay; type: cell-based; conditions: Table 3, AAD series, human epithelial ovarian cancer
# Experimental: as §1, §2
# CHO = test: SRB cell proliferation assay; type: cell-based; conditions: Cricetulus griseus, Table 3, AAD series, Chinese hamster ovarian cells
# Experimental: as §1, §2
# HUVEC = test: SRB cell proliferation assay; type: cell-based; conditions: Homo sapiens, Table 3, AAD series, human umbilical vein endothelial cells
# Experimental: as §1, §2
# [1] = test system: cdk2, cdk4, cyclins A, and E; test: Western blot of cell cycle regulatory proteins; type: cell-based; conditions: MPL 0, 5, 10, 25 μM
# Experimental: Protein expression in cells was determined using western blot analysis. After treatment with the indicated concentrations of MPL, cell lysates were prepared and probed with antibodies for cdk2, cdk4, cyclin A, cyclin E, PARP-1 (1:1000 dilutions; Cell Signalling Technology), and p53 (1:200 dilutions; Santa Cruz Biotechnology).
# MCF-7 = test: SRB cell proliferation assay; type: cell-based; conditions: Homo sapiens, MCF7, MCF-7, breast cancer, 72 h
# Experimental: as §1, §2
# HT-29 = test: SRB cell proliferation assay; type: cell-based; conditions: Homo sapiens; HT-29, colorectal cancer
# Experimental: as §1, §2
# SW-876 = test: SRB cell proliferation assay; type: cell-based; conditions: SW-876, liposarcoma
# Experimental: as §1, §2
# LN-18 = test: SRB cell proliferation assay; type: cell-based; conditions: Homo sapiens; LN-18, glioma
# Experimental: as §1, §2
# T98G = test: SRB cell proliferation assay; type: cell-based; conditions: Homo sapiens, glioma
# Experimental: as §1, §2
# HCT-116 = test: SRB cell proliferation assay; type: cell-based; conditions: Homo sapiens; HCT-116, colorectal cancer
# Experimental: as §1, §2
# HaCat = test: SRB cell proliferation assay; type: cell-based; conditions: Homo sapiens, keratinocyte
# Experimental: as §1, §2
# HT-29 5m11 = test: SRB cell proliferation assay; type: cell-based; conditions: Homo sapiens; HT-29 5m11, colorectal cancer
# Experimental: as §1, §2
# cancer cell lines = test: SRB cell proliferation assay, comparison across cell lines; type: cell-based
# Experimental: as §2
# cancer cell-lines = test: Thymidine incorporation; type: cell-based
# U87 glioma cells = test: Autophagy (vacuole formation, LC3-II); type: cell-based; conditions: chemo-resistant U87 glioma cells
# OVCAR-3 or A2780 cells [2] = test: Cellular ATP levels and ADP/ATP ratio; type: cell-based, human
# OVCAR-3 tumors = test: s.c. OVCAR-3 xenografts in nude mice; type: in vivo; conditions: for s.c. tumor growth: i.p., three times weekly
# Experimental: Female nude mice (6 weeks old) were purchased from Biological Resources (University of New South Wales). Institutional animal ethics approvals covered procedures carried out on mice. Briefly, 2.5×10^6 log-phase growing OVCAR-3 cells were injected s.c. into the left flank of each mouse. Animals were weighed once weekly while their tumor volumes were determined twice weekly. Tumor growth was monitored by caliper measurements of orthogonal diameters, and the estimated tumor volume was calculated based on the formula […], where width is the shorter of the two orthogonal measurements. Based on institutional ethics approval, mice were euthanized before the tumor volume reached 500 mm3. Treatment was initiated on day 8 post tumor cell inoculation when mice were randomized and assigned to one of MPL or vehicle treated groups (5-6 mice per group). MPL was suspended in […] methylcellulose (0.5% w/v HPMC), sterilized by sonnicator and administered every other day either intraperitoneally (i.p) or orally as gavage (100 μL).
# In the first pilot trial, the drug was administered i.p. at 2.5 or 25 mg/kg body weight, three times weekly for 2 weeks.
# Following the outcome, in the next set of animals, the dose was increased to 25 and 50 mg/kg, three times weekly.
# In the last (third) pilot study, mice were treated orally. The doses administered were 50 and 100 mg/kg three times weekly. In all these trials, mice in control groups received similar volume of the vehicle (0.5% HPMC). Tumor histology/immunohistochemistry was performed on formalin fixed tumor slices according to standard procedures.
# OVCAR-3 or A2780 cells [3] = test: Cell cycle analysis by flow cytometry; type: cell-based, human; conditions: 25 μM MPL
# Experimental: The effect of MPL on the cell cycle was determined using standard flow cytometry analysis protocols and procedures. Briefly, 0.7×10^6 million cells seeded in 25 cm^3 flasks and allowed to adhere overnight were treated with MPL for 24 or 48 h. Cells were collected with trypsinization and pooled with the cells floating in the medium. The cell suspensions were centrifuged, washed with PBS and fixed with methanol. Cells were then washed, resuspended in propodium iodide and ribonuclease A in PBS for 30 min at room temperature and analyzed by flow cytometry (Becton Dickinson FACSort).
# [4] = mammals; cited from earlier work
# OVCAR-3 or A2780 cells [5] = test: Colony formation assay; type: cell-based, human; conditions: higher concentrations of MPL; 72 h exposure, 2 weeks drug free
# Experimental: For colony formation assay, 5×10^6 cells, such as OVCAR-3 or A2780 cells, were plated in 100 mm Petri dishes and allowed to attach overnight. Media were aspirated off and exponentially growing cells were incubated with various concentrations of MPL for 72 h. At this point, the medium was aspirated, the dishes were washed with PBS, and drug free medium was added to each plate. Media were changed twice weekly for 3 weeks. Following this, plates were gently washed with PBS and cells were fixed with 100% ethanol and stained with a 0.5% solution of filtered crystal violet. Colonies consisting of more than 50 cells were counted under an inverted microscope.
# To determine the effect of MPL on cell integrity and capacity to rid itself from drug effects following drug exposure and withdrawal, cells were incubated with MPL (0, 5, 10, 25 μM) for 72 h, washed with PBS, transferred to agar plates, cultured with growth medium and incubated under standard conditions for 2 weeks. Cells were then fixed with 100% methanol and stained with 1% crystal violet. Colonies (Cluster of cells greater than 50) were counted under microscope (magnification ×5). Number of colonies counted for different experimental groups is expressed as percentage of the control (FIG. 14).
# nicotinic receptors = test: MPL antiproliferative effect after pre-treatment with nicotinic agonists or antagonists; type: cell-based; conditions: 30 min pre-treatment, MPL 5 μM, 72 h
# Experimental: Cells were pre-treated (30 min) with increasing concentrations of nicotine, carbachol or the receptor antagonists, atropine, mecamylamine, tubocurarine, and α-bungarotoxin. MPL (5 μM) was added and left in the cell culture incubator for 72 h. Each drug concentration was tested in quadruplicate and each experiment was repeated twice. Combine values (mean±SEM) are presented as % control.
smiles,measurement,setting,value
CC(C#N)(COc1ccccc1Cl)NC(=O)c1ccc(C(F)(F)F)cc1 (centres unmarked) [AAD 450],IC50,A2780,33.5 ± 8.5 µM
same,IC50,OVCAR-3,23.9 ± 1.45 µM
same,IC50,CHO,45.9 µM
same,IC50,HUVEC,96.5 µM
CC(C#N)(COc1cc(Cl)ccc1Cl)NC(=O)c1ccc(OC(F)(F)F)cc1 (centres unmarked) [AAD 1154],IC50,A2780,28 ± 4.5 µM
same,IC50,OVCAR-3,20.5 ± 0.5 µM
same,IC50,CHO,34.8 µM
same,IC50,HUVEC,61.1 µM
"C[C@](C#N)(COc1cc(C#N)ccc1C(F)(F)F)NC(=O)c1ccc(SC(F)(F)F)cc1 [MPL, N-[(1S)-1-cyano-2-(5-cyano-2-trifluoromethyl-phenoxy)-1-methyl-ethyl]-4-trifluoromethylsulfanyl-benzamide]",expression of cell cycle regulatory proteins,[1],"lower levels of cdk2, cdk4, cyclins A, and E"
same,IC50,MCF-7,15.4 ± 1.1 µM
same,IC50,HT-29,5.86 ± 0.2 µM
same,IC50,SW-876,14.6 µM
same,IC50,LN-18,9.38 ± 0.79 µM
same,IC50,T98G,18.2 ± 0.61 µM
same,IC50,HCT-116,10.5 ± 0.02 µM
same,IC50,HaCat,21.2 ± 3.2 µM
same,IC50,HT-29 5m11,10.4 µM
same,sensitivity of chemo-resistant cell lines to antiproliferative action,"cancer cell lines; ovarian chemo-resistant, glioma temozolomide resistant, breast cancer tamoxifen resistant cells",sensitive
same,thymidine incorporation into the cell (DNA synthesis),cancer cell-lines,Blocks thymidine incorporation
same,expression of LC3-II (autophagy),U87 glioma cells,increased expression of LC3-II in a concentration-dependent manner
same,cellular ratio of ADP/ATP,OVCAR-3 or A2780 cells [2],reduces the cellular ratio of ADP/ATP
same,tumor tissue histology,OVCAR-3 tumors; MPL treated tumors from the in vivo trials,extensive necrosis
same,s.c. tumor growth,"OVCAR-3 tumors; first trial, 25 mg/kg, female nude mice",particularly effective
same,s.c. tumor growth,"OVCAR-3 tumors; second trial, 50 mg/kg compared with 25 mg/kg",more effective in retarding tumor growth
same,percentage of cells in G2-M phase,OVCAR-3 or A2780 cells [3],more than three times higher
same,dosage well tolerated,[4],1000 mg of MPL per kg of body weight per 24 hours
same,clonogenic ability,OVCAR-3 or A2780 cells [5],almost complete loss of clonogenic ability
same,MPL-induced inhibition of proliferation after pre-treatment with nicotinic agonists or antagonists,nicotinic receptors,neither positively nor negatively affected
"C[C@](C#N)(COc1cc(C#N)ccc1C(F)(F)F)NC(=O)c1ccc(S(=O)(=O)C(F)(F)F)cc1 [MPL-SO2, monepantel sulphone]",potency compared with MPL,cancer cell lines; SRB proliferation assay,as potent as MPL
